# Read-outs that look alike come from different tables or passages of the source.
# Columns and labels:
# [1] = Solubility studies in lipid-based formulations (MCT, LCM) at different temperatures; assay type: physicochemical; details: for solubility: oil or lipid, thermodynamic from solid, n = 3, mean ± SD
# Method: In the case that the added compound was dissolved during incubation, more compound was added. After incubation, the samples were centrifuged in an Eppendorf centrifuge 5430R (Hamburg, Germany) for 30 min at 17,500 rpm (=30,130 rcf) at either 20 °C (samples incubated at ambient temperature), 37 °C (samples incubated at 37 °C), or 40 °C (samples incubated at 60 °C). The supernatant was diluted and further analyzed by UPLC-UV, as described below.
# The supernatants obtained from the solubility studies were diluted 1:50 with tetrahydrofuran, which was further diluted 1:100 with acetonitrile. […] This final dilution was analyzed by using an Acquity (UPLC™) H-class system composed of a quaternity solvent manager, a photodiode array (PDA) detector, a sample manager, and the Empower® software (version 3.0) for data processing. For the chromatographic analysis, a reversed-phase Waters Acquity BEH C18 with a 50 mm × 2.1 mm column (particle size 1.7 μm) including a precolumn (Waters Acquity BEH C18, 5 mm * 2.1 mm, particle size 1.7 μm) (Waters, Milford, CT, USA) was used.
# The statistical analysis was performed using GraphPad Prism, Version 9.5.1.
# [2] = MCT and LCM formulations, polarized light, Figure 1A-D
# From the text: For selected samples where precipitation was visible, a few droplets (enough volume to cover the area of a quartz microscope slide covered by a cover slip) were taken from the middle of the vial using a plastic pipette, and the crystallinity was confirmed by using a ZEISS Axio Vert.A1 microscope with polarized light function (Jena, Germany).
# [3] = cited from earlier work
# [4] = cited from earlier work; for Drug load, % of the equilibrium solubility at 37 °C: supersaturated type I and type II LBFs
# [5] = for Stability: celecoxib in LCM
# rats = test system: rats; parameters: method as in PMID 33387565; details: doses of 1000–4000 ppm DCM; cited from earlier work
# hamsters = test system: hamsters; parameters: method as in PMID 33387565; details: doses of 1000–4000 ppm DCM; cited from earlier work
# mice = test system: mice; parameters: method as in PMID 33387565; details: doses of 1000–4000 ppm DCM; cited from earlier work
compound,measurement,setting,value
"Cc1ccc(-c2cc(C(F)(F)F)nn2-c2ccc(S(N)(=O)=O)cc2)cc1 [Celecoxib, celecoxib]",Ratio of solubility 60 °C/Ambient temperature,[1]; LCM,2.38 ± 0.04
same,Ratio of solubility 60 °C/Ambient temperature,[1]; MCT,1.85 ± 0.03
same,solubility,"[1]; long-chain monoglyceride (Maisine CC), Maisine CC, 37 °C, read-out: Solubility LCM",15.57 ± 0.09 mg/mL
same,solubility,"[1]; long-chain monoglyceride (Maisine CC), Maisine CC, 60 °C, read-out: Solubility LCM",24.6 ± 0.36 mg/mL
same,solubility,"[1]; long-chain monoglyceride (Maisine CC), Maisine CC, ambient temperature (~21 °C), read-out: Solubility LCM",10.34 ± 0.08 mg/mL
same,solubility,"[1]; medium-chain triglyceride (Labrafac Lipophile WL1349), medium-chain triglyceride, 37 °C, read-out: Solubility MCT",11.3 ± 0.05 mg/mL
same,solubility,"[1]; medium-chain triglyceride (Labrafac Lipophile WL1349), medium-chain triglyceride, 60 °C, read-out: Solubility MCT",14.3 ± 0.25 mg/mL
same,solubility,"[1]; medium-chain triglyceride (Labrafac Lipophile WL1349), medium-chain triglyceride, ambient temperature (~21 °C), read-out: Solubility MCT",7.72 ± 0.16 mg/mL
same,Supersaturation ratio between 60 °C and ambient temperature,[1]; range over MCT and LCM,1.85–2.38
same,Drug load relative to the solubility at ambient temperature,[1]; supersaturation induced by heat (60 °C),238%
same,Solid state of the precipitate from the formulations,[2],crystalline
same,log P,[3],4.3
same,Time to precipitation,"[4]; heat-induced supersaturated type I and type II LBFs, in most cases",≤ 14 days
same,"Drug load, % of the equilibrium solubility at 37 °C",[4],≤ 136%
same,Precipitation,"[5]; celecoxib content of 371% or higher, both vehicles, stored at ambient",visible precipitation already within a timeframe of a few days
same,Stability,"[5]; DCM 1 + 2, stored at ambient",7 to 14 days
same,Stability,"[5]; DCM 1 + 4, stored at ambient, n = 1",7 to 14 days
same,Drug load relative to the solubility at ambient temperature,"[5]; solvent-based approach, DCM evaporation",up to 475%
"ClCCl [DCM, dichloromethane]",Risk for malignant tumors,rats,not in rats and hamsters
same,Risk for malignant tumors,hamsters,not in rats and hamsters
same,Risk for malignant tumors,mice,increased risk for malignant tumors
"CC(C)OC(=O)C(C)(C)Oc1ccc(C(=O)c2ccc(Cl)cc2)cc1 [Fenofibrate, fenofibrate]",Time of storage to crystallization,"[4]; heat-induced supersaturated LBF of MCT and phospholipids, prepared at 65 °C, stored at 20–23 °C",nine weeks
C(=C\c1ccccc1)/CN1CCN(C(c2ccccc2)c2ccccc2)CC1 [cinnarizine],"Drug load, % of the equilibrium solubility at 37 °C",[4],up to 138%
CC(C)Cc1ccc(C(C)C(=O)O)cc1 (stereo not drawn) [ibuprofen],Time stable,[4]; some ibuprofen-loaded solid LBFs,up to 9 months
